This passage reports EC50 and IC50 results from patent US10457707B2, “Substituted urea depsipeptide analogs as activators of the CLPP endopeptidase” (priority 2015, dated 2019).

Assay [1] concerns the target T1, Sa-ClpP (Staphylococcus aureus, UniProt Q2G036).
T1 construct: made in house; host or cells: E. coli BL21(DE3)
T1 sequence (Q2G036 1-195): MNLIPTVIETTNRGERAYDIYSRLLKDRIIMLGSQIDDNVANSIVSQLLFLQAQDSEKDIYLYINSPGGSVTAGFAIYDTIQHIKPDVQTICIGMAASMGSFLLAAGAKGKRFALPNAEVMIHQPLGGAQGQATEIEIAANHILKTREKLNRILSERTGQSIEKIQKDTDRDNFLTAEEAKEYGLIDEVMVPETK
Nature of the assay: Sa-ClpP casein-BODIPY ClpP activation assay, method variant not marked in Table 5. It is filed as biochemical, S. aureus. Put shortly: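 EC50 for activation derived by dose-response fitting of casein digestion rates, run in triplicate. Conditions: 37° C, pH 8 buffer with 200 mM KCl and 1 mM TCEP, 10 μM Sa-ClpP, 25 μg/ml BODIPY FL casein, compound at 0-1000 μM; signal at 485/528 nm followed 45 min.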

For assay [2], the target named is T1, Sa-ClpP. Nature of the assay: ADEP displacement fluorescence polarization assay (FP probe ADEP 2591). The assay is classed as binding. Put shortly: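 Probe displacement was measured in mP after compounds sat 120 min at room temperature with pre-equilibrated (1 h) Sa-ClpP (15 μM) and ADEP 2591 FP probe (50 nM) in pH 8.0 Tris-HCl with 2% DMSO. Data were scaled between DMSO and 200 μM ADEP 2378 and fit by variable-slope log-inhibitor regression.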
In general terms: Polarisation of emitted light reports the rotation of a fluorescent probe.

Setting [3] is: values without ** or † mark, assay variant not stated, read-out: ClpP Activation EC50.

Like-named read-outs stand apart in the source and are kept apart here. *1 amine or outer side, *2 acyl side, *3 side chain or, on linkers, in order; H or OH if unused. Where a SMILES comes first, the peptide text is derived from it. Bridges are numbered along the chain shown (N, C = ends). [ ]: non-standard residue; d: D form. The star is where a group is joined. ξ: configuration not given here. NH(1,3-benzodioxol-5-yl) = c1cc2c(cc1N*)OCO2; Phe(3,5-F2) = N[C@@H](Cc1cc(F)cc(F)c1)C(=O)O; NH(1-Me-indolin-5-yl) = CN1CCc2cc(N*)ccc21; Morpholine(3S-CO) = O=C(O)[C@@H]1COCCN1; NH(4-Cl-2-F-phenyl) = Fc1cc(Cl)ccc1N*; Pro(4R-Me) = C[C@H]1CN[C@H](C(=O)O)C1; Hyp = O=C(O)[C@@H]1C[C@@H](O)CN1; NH(4-Et-phenyl) = CCc1ccc(N*)cc1; NH(4-Me-phenyl) = Cc1ccc(N*)cc1; ξNMeThr = CNC(C(=O)O)[C@@H](C)O; aThr = C[C@H](O)[C@H](N)C(=O)O; Pip = O=C(O)[C@@H]1CCCCN1; X2 = CN1CCc2ccc(N*)cc21; X1 = N#Cc1cc(N*)ccc1F; CO = O=C([*:1])[*:2]

What is called EC50 is the concentration giving half of the maximal effect. A word on the IC50: it is the concentration that inhibits the measured activity by half. Low values mean greater potency in that assay, high ones weaker potency in that assay. With `C[C@@H]1C[C@H]2C(=O)O[C@@H](C)[C@H](NC(=O)[C@H](Cc3cc(F)cc(F)c3)NC(=O)Nc3ccc(Cl)cc3F)C(=O)N3CCC[C@H]3C(=O)N3CCOC[C@H]3C(=O)N[C@@H](C)C(=O)N2C1` [Compound 314, (S)-2-(3-(4-chloro-2-fluorophenyl)ureido)-3-(3,5-difluorophenyl)-N-((6aS,12S,13S,15aS,17R,21S,23aS)-13,17,21-trimethyl-6,11,15,20,23-pentaoxooctadecahydro-6H,11H,15H-[1,4]oxazino[3,4-i]dipyrrolo[2,1-c:2′,1′-l][1]oxa[4,7,10,13]tetraazacyclo-hexadecin-12-yl)propanamide] ({NH(4-Cl-2-F-phenyl)-CO}-[Phe(3,5-F2)][aThr]P[Morpholine(3S-CO)]A[Pro(4R-Me)]; ester 2-C), a half-maximal effect on Sa-ClpP [1] (EC50) was put at 0.4 ± 0.01 µM. This molecule yielded an IC50 on Sa-ClpP [2] of 7.2 ± 0.3 µM.
For `C[C@@H]1C[C@H]2C(=O)O[C@@H](C)[C@H](NC(=O)[C@H](Cc3cc(F)cc(F)c3)NC(=O)Nc3ccc4c(c3)CCN4C)C(=O)N3C[C@H](O)C[C@H]3C(=O)N3CCOC[C@H]3C(=O)N[C@@H](C)C(=O)N2C1` [Compound 315, (S)-3-(3,5-difluorophenyl)-N-((6aS,8R,12S,13S,15aS,17R,21S,23aS)-8-hydroxy-13,17,21-trimethyl-6,11,15,20,23-pentaoxooctadecahydro-6H,11H,15H-[1,4]oxazino[3,4-i]dipyrrolo[2,1-c:2′,1′-l][1]oxa[4,7,10,13]tetraazacyclohexadecin-12-yl)-2-(3-(1-methylindolin-5-yl)ureido)propanamide] ({NH(1-Me-indolin-5-yl)-CO}-[Phe(3,5-F2)][aThr][Hyp][Morpholine(3S-CO)]A[Pro(4R-Me)]; ester 2-C), the EC50 on Sa-ClpP [1] (setting [3]) turned out to be 1.06 ± 0.04 µM. Further, on Sa-ClpP [2], the IC50 was 13.5 ± 0.6 µM.
In turn, `C[C@@H]1C[C@H]2C(=O)O[C@@H](C)[C@H](NC(=O)[C@H](Cc3cc(F)cc(F)c3)NC(=O)Nc3ccc(Cl)cc3F)C(=O)N3C[C@H](O)C[C@H]3C(=O)N3CCOC[C@H]3C(=O)N[C@@H](C)C(=O)N2C1` [Compound 316, (S)-2-(3-(4-chloro-2-fluorophenyl)ureido)-3-(3,5-difluorophenyl)-N-((6aS,8R,12S,13S,15aS,17R,21S,23aS)-8-hydroxy-13,17,21-trimethyl-6,11,15,20,23-pentaoxooctadecahydro-6H,11H,15H-[1,4]oxazino[3,4-i]dipyrrolo[2,1-c:2′,1′-l][1]oxa[4,7,10,13]tetraazacyclo-hexadecin-12-yl)propanamide] ({NH(4-Cl-2-F-phenyl)-CO}-[Phe(3,5-F2)][aThr][Hyp][Morpholine(3S-CO)]A[Pro(4R-Me)]; ester 2-C) returned an EC50 at Sa-ClpP [1] of 0.45 ± 0.02 µM. For the same molecule, on Sa-ClpP [2], the IC50 came to 6.9 ± 0.3 µM.
In the case of `Cc1ccc(NC(=O)N[C@@H](Cc2cc(F)cc(F)c2)C(=O)N[C@H]2COC(=O)[C@@H]3C[C@@H](C)CN3C(=O)[C@H](C)NC(=O)[C@@H]3COCCN3C(=O)[C@@H]3C[C@@H](O)CN3C2=O)cc1` [Compound 317, (S)-3-(3,5-difluorophenyl)-N-((6aS,8R,12S,15aS,17R,21S,23aS)-8-hydroxy-17,21-dimethyl-6,11,15,20,23-pentaoxooctadecahydro-6H,11H,15H-[1,4]oxazino[3,4-i]dipyrrolo[2,1-c:2′,1′-l][1]oxa[4,7,10,13]tetraazacyclohexadecin-12-yl)-2-(3-(p-tolyl)ureido)propanamide] ({NH(4-Me-phenyl)-CO}-[Phe(3,5-F2)]S[Hyp][Morpholine(3S-CO)]A[Pro(4R-Me)]; ester 2-C), the EC50 at Sa-ClpP [1] (setting [3]) amounted to 0.38 ± 0.03 µM. At Sa-ClpP [2], this molecule had a 50% inhibitory concentration (IC50) of 7.25 ± 0.5 µM.
`C[C@@H]1C[C@H]2C(=O)OC[C@H](NC(=O)[C@H](Cc3cc(F)cc(F)c3)NC(=O)Nc3ccc4c(c3)OCO4)C(=O)N3C[C@H](O)C[C@H]3C(=O)N3CCOC[C@H]3C(=O)N[C@@H](C)C(=O)N2C1` [Compound 318, (S)-2-(3-(benzo[d][1,3]dioxol-5-yl)ureido)-3-(3,5-difluorophenyl)-N-((6aS,8R,12S,15aS,17R,21S,23aS)-8-hydroxy-17,21-dimethyl-6,11,15,20,23-pentaoxooctadecahydro-6H,11H,15H-[1,4]oxazino[3,4-i]dipyrrolo[2,1-c:2′,1′-l][1]oxa[4,7,10,13]tetraazacyclo-hexadecin-12-yl)propanamide] ({NH(1,3-benzodioxol-5-yl)-CO}-[Phe(3,5-F2)]S[Hyp][Morpholine(3S-CO)]A[Pro(4R-Me)]; ester 2-C): the midpoint of the response at Sa-ClpP [1], the EC50, lay at 0.46 ± 0.06 µM. The molecule also gave an IC50 at Sa-ClpP [2] of 6.54 ± 0.5 µM.
The like results for `C[C@@H]1C[C@H]2C(=O)O[C@@H](C)[C@H](NC(=O)[C@H](Cc3cc(F)cc(F)c3)NC(=O)Nc3ccc4c(c3)OCO4)C(=O)N3C[C@H](O)C[C@H]3C(=O)N3CCOC[C@H]3C(=O)N[C@@H](C)C(=O)N2C1` [Compound 319, (S)-2-(3-(benzo[d][1,3]dioxol-5-yl)ureido)-3-(3,5-difluorophenyl)-N-((6aS,8R,12S,13S,15aS,17R,21S,23aS)-8-hydroxy-13,17,21-trimethyl-6,11,15,20,23-pentaoxooctadecahydro-6H,11H,15H-[1,4]oxazino[3,4-i]dipyrrolo[2,1-c:2′,1′-l][1]oxa[4,7,10,13]tetraazacyclo-hexadecin-12-yl)propanamide] ({NH(1,3-benzodioxol-5-yl)-CO}-[Phe(3,5-F2)][aThr][Hyp][Morpholine(3S-CO)]A[Pro(4R-Me)]; ester 2-C) were, in that order, 0.45 ± 0.04 µM and 7.75 ± 0.6 µM.
For `CCc1ccc(NC(=O)N[C@@H](Cc2cc(F)cc(F)c2)C(=O)N[C@@H]2C(=O)N3C[C@H](O)C[C@H]3C(=O)N3CCOC[C@H]3C(=O)N[C@@H](C)C(=O)N3C[C@H](C)C[C@H]3C(=O)O[C@H]2C)cc1` [Compound 320, (S)-3-(3,5-difluorophenyl)-2-(3-(4-ethylphenyl)ureido)-N-((6aS,8R,12S,13S,15aS,17R,21S,23aS)-8-hydroxy-13,17,21-trimethyl-6,11,15,20,23-pentaoxooctadecahydro-6H,11H,15H-[1,4]oxazino[3,4-i]dipyrrolo[2,1-c:2′,1′-l][1]oxa[4,7,10,13]-tetraazacyclohexadecin-12-yl)propanamide] ({NH(4-Et-phenyl)-CO}-[Phe(3,5-F2)][aThr][Hyp][Morpholine(3S-CO)]A[Pro(4R-Me)]; ester 2-C), in that order: 0.33 ± 0.1 µM and 7.48 ± 0.6 µM.
`C[C@@H]1C[C@H]2C(=O)O[C@@H](C)[C@H](NC(=O)[C@H](Cc3cc(F)cc(F)c3)NC(=O)Nc3ccc4c(c3)N(C)CC4)C(=O)N3CCC[C@H]3C(=O)N3CCCC[C@H]3C(=O)N[C@@H](C)C(=O)N2C1` [Compound 321, (S)-3-(3,5-difluorophenyl)-2-(3-(1-methylindolin-6-yl)ureido)-N-((2R,6S,8aS,14aS,20S,21S,23aS)-2,6,21-trimethyl-5,8,14,19,23-pentaoxooctadecahydro-1H,5H,14H,19H-pyrido[2,1-i]dipyrrolo[2,1-c:2′,1′-l][1]oxa[4,7,10,13]tetraazacyclo-hexadecin-20-yl)propanamide] ({X2-CO}-[Phe(3,5-F2)][aThr]P[Pip]A[Pro(4R-Me)]; ester 2-C): the EC50 on Sa-ClpP [1] (setting [3]) worked out at 0.52 ± 0.02 µM. In addition, the IC50 on Sa-ClpP [2] was found to be 8.23 ± 0.7 µM.
As for `Cc1ccc(NC(=O)N[C@@H](Cc2cc(F)cc(F)c2)C(=O)N[C@H]2COC(=O)[C@@H]3C[C@@H](C)CN3C(=O)[C@H](C)NC(=O)C([C@@H](C)O)N(C)C(=O)[C@@H]3CCCN3C2=O)cc1` (stereo partly drawn) [Compound 322, (S)-3-(3,5-difluorophenyl)-N-((2R,6S,9R,11aS,17S,20aS)-9-((R)-1-hydroxyethyl)-2,6,10-trimethyl-5,8,11,16,20-pentaoxohexadecahydro-1H,5H,16H-dipyrrolo[2,1-c:2′,1′-l][1]oxa[4,7,10,13]tetraazacyclohexadecin-17-yl)-2-(3-(p-tolyl)ureido)propanamide] ({NH(4-Me-phenyl)-CO}-[Phe(3,5-F2)]SP[ξNMeThr]A[Pro(4R-Me)]; ester 2-C), at Sa-ClpP [1] (setting [3]), the EC50 was determined as 0.56 ± 0.03 µM. At Sa-ClpP [2], this molecule had an IC50 of 8.54 ± 0.4 µM.
For `Cc1ccc(NC(=O)N[C@@H](Cc2cc(F)cc(F)c2)C(=O)N[C@H]2COC(=O)[C@@H]3C[C@@H](C)CN3C(=O)[C@H](C)NC(=O)C3CCCCN3C(=O)[C@@H]3C[C@@H](O)CN3C2=O)cc1` (stereo partly drawn) [Compound 323, (S)-3-(3,5-difluorophenyl)-N-((2R,6S,8aR,14aS,16R,20S,23aS)-16-hydroxy-2,6-dimethyl-5,8,14,19,23-pentaoxooctadecahydro-1H,5H,14H,19H-pyrido[2,1-i]dipyrrolo[2,1-c:2′,1′-l][1]oxa[4,7,10,13]tetraazacyclohexadecin-20-yl)-2-(3-(p-tolyl)ureido)propanamide], in that order: 0.67 ± 0.02 µM and 9.18 ± 0.4 µM.
As for `C[C@@H]1C[C@H]2C(=O)O[C@@H](C)[C@H](NC(=O)[C@H](Cc3cc(F)cc(F)c3)NC(=O)Nc3ccc(F)c(C#N)c3)C(=O)N3CCC[C@H]3C(=O)N3CCCC[C@H]3C(=O)N[C@@H](C)C(=O)N2C1` [Compound 324, (S)-2-(3-(3-cyano-4-fluorophenyl)ureido)-3-(3,5-difluorophenyl)-N-((2R,6S,8aS,14aS,20S,21S,23aS)-2,6,21-trimethyl-5,8,14,19,23-pentaoxooctadecahydro-1H,5H,14H,19H-pyrido[2,1-i]dipyrrolo[2,1-c:2′,1′-l][1]oxa[4,7,10,13]tetraazacyclo-hexadecin-20-yl)propanamide] ({X1-CO}-[Phe(3,5-F2)][aThr]P[Pip]A[Pro(4R-Me)]; ester 2-C), it took 0.5 ± 0.03 µM to reach a half-maximal effect at Sa-ClpP [1] (EC50). Moreover, on Sa-ClpP [2], the concentration for half-maximal inhibition (IC50) turned out to be 7.93 ± 0.3 µM.
